Measured values reported in patent US20190315823A1, “SMALL CATIONIC ANTI-BIOFILM AND IDR PEPTIDES” (priority 2013, published 2019).
Ends that are not written are not given here.

How the values were obtained:
[1] = tested on: methicillin resistant Staphylococcus aureus (MRSA) biofilm; settings: approximate peptide concentration […] (around 3 μg/ml); compared to untreated samples
Method in brief: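 Static biofilm assay: 1/100 dilutions of overnight cultures grown in BM2 medium (pH 7, glucose, Casamino Acids) or Luria Broth with peptide added at time zero. After 22–46 h, adherent biofilm was stained with crystal violet and read at 595 nm. Some peptides were also tested on K. pneumoniae under flow in a Bioflux system.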

[2] = tested on: human peripheral blood mononuclear cells (MCP-1); experiment: SPOT-synthesized derivative screen: production of chemokine MCP-1; format: cell-based; settings: Table 12, No LPS, human PBMC, peptide at ~18-24 μM; for MCP1: background subtracted 139 (HH2 derivatives), 170 (1018 derivatives), 242 (1002 and hybrid peptides) pg/ml
Method in brief: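 PBMC from heparinized healthy-donor venous blood, Ficoll-separated, cultured at 0.75 to 1×10^6 cells/ml, 37 °C, 5% CO2, under the treatment regimens. MCP-1 in cell-free supernatants measured by capture ELISA.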

[3] = tested on: LPS-stimulated human peripheral blood mononuclear cells (IL1-β); format: cell-based; settings: Table 12, cells stimulated with 10 ng/ml LPS; for IL1β Production: LPS alone 1313 (HH2 derivatives), 1927 (1018 derivatives), 2455 (1002 and hybrid peptides) pg/ml

| Substance | % Biofilm inhibition [1] [%] | Fold increase in MCP1 cf. untreated cells [2] | MCP1 [2] [pg/mL] | Fold change in IL1β relative to no peptide LPS stimulated cells [3] | IL1β Production [3] [pg/mL] |
| --- | --- | --- | --- | --- | --- |
| HH2-G3: single substituted HH2 peptide (VQGRIRVAVIRA-NH2) | 21 | 1.7 | 117 | 1.29 | 1687 |
| 1018-Q12: single substituted 1018 peptide (VRLIVAVRIWRQ-NH2) [Peptide 1018-Q12] | 57 | 0.8 | -28 | 0.50 | 655 |
| 1002-W5: single substituted 1002 peptide (VQRWWIVWRIRK-NH2) [Peptide 1002-W5] | 76 | 0.9 | -36.2 | 0.05 | 127 |
| HH2-Q11: single substituted HH2 peptide (VQLRIRVAVIQA-NH2) | 63 | 17 | 2759 | 0.78 | 1020 |
| 1002-Q9: single substituted 1002 peptide (VQRWLIVWQIRK-NH2) [Peptide 1002-Q9] | 41 | 7.2 | 1514.2 | 0.05 | 127 |
| 1002-V4: single substituted 1002 peptide (VQRVLIVWRIRK-NH2) [Peptide 1002-V4] | 69 | 10.5 | 2300.2 | 0.08 | 190 |
| 1018-G11: single substituted 1018 peptide (VRLIVAVRIWGR-NH2) [Peptide 1018-G11] | 40 | 48 | 7922 | 0.91 | 1189 |
| 1002-K3: single substituted 1002 peptide (VQKWLIVWRIRK-NH2) [Peptide 1002-K3] | 61 | 3.4 | 576.2 | 0.06 | 137 |
| 1018-A10: single substituted 1018 peptide (VRLIVAVRIARR-NH2) [Peptide 1018-A10] | 54 | 1.0 | 7 | 0.28 | 369 |
| HH2-A9: single substituted HH2 peptide (VQLRIRVAAIRA-NH2) | 51 | 1.9 | 157 | 1.46 | 1923 |
| 1002-V5: single substituted 1002 peptide (VQRWVIVWRIRK-NH2) [Peptide 1002-V5] | 75 | 38.2 | 9022.6 | 0.18 | 440 |
| HH2-I1: single substituted HH2 peptide (IQLRIRVAVIRA-NH2) | 73 | 51 | 8573 | 0.84 | 1103 |
| 1002-I12: single substituted 1002 peptide (VQRWLIVWRIRI-NH2) [Peptide 1002-I12] | 66 | 0.9 | -36.2 | 0.05 | 127 |
| 1018-V8: single substituted 1018 peptide (VRLIVAVVIWRR-NH2) [Peptide 1018-V8] | 34 | 1.2 | 29 | 0.35 | 463 |
| HH2-I8: single substituted HH2 peptide (VQLRIRVIVIRA-NH2) | 74 | 17 | 2789 | 0.53 | 701 |
| 1002-G12: single substituted 1002 peptide (VQRWLIVWRIRG-NH2) [Peptide 1002-G12] | 50 | 0.9 | -36.2 | 0.10 | 240 |
| HH2-L2: single substituted HH2 peptide (VLLRIRVAVIRA-NH2) | 69 | 13 | 1950 | 0.89 | 1172 |
| 1002-A9: single substituted 1002 peptide (VQRWLIVWAIRK-NH2) [Peptide 1002-A9] | 58 | 14.4 | 3239.9 | 0.05 | 127 |
| 1018-V11: single substituted 1018 peptide (VRLIVAVRIWVR-NH2) [Peptide 1018-V11] | 29 | 1.0 | 2 | 0.94 | 1240 |
